The results in this text go back to US10519105B2, “KCNQ2-5 channel activator” (ONO PHARMACEUTICAL CO., LTD., priority 2016, dated 2019).

Each structure is given as a SMILES string. Values after ≈ are worked out from the molar mass of the structure shown.

The test system of data set [1] is bladder extracted from rat. The data set can be described thus: Relaxing action on bladder extracted from rat (carbachol-induced contraction, Magnus tube). Conditions: rat bladder strip, carbachol 1 μM contraction; read-out: IC20 (percent change in tension -20%). As for the experimental part: Female Jcl:Wistar rats (CLEA Japan, Inc., body weight at use: 170 to 200 g) were anesthetized by intraperitoneal administration of about 40 mg/kg of pentobarbital (Somnopentyl, Schering Plough Animal Health Corporation), and killed by bloodletting. The bladder was extracted by abdominal incision and immediately thereafter immersed in ice-cooled Krebs buffer (Krebs Ringer bicarbonate buffer (Sigma-Aldrich Co. LLC) supplemented with sodium hydrogen carbonate (final concentration: 15 mM) and calcium chloride (final concentration: 2.5 mM)) saturated with a mixed gas (95% O2, 5% CO2).
The bladder body extracted from each rat was cut into an oblong strip shape (about 10×3 mm), whereby a specimen was prepared on ice. Immediately thereafter, the specimen was suspended in a Magnus tube filled with Krebs buffer (37° C.) bubbled with the mixed gas while applying a tension load of 500 mg thereto. Incidentally, the specimen was prepared within 24 hours after extracting the tissue.
After the elapse of one hour or more from the suspension of the specimen, 2.5 M KCl was added thereto to a final concentration of 100 mM, and the specimen in which a contraction reaction could be confirmed was used.
Carbachol (a contraction inducer) contraction was induced at a concentration of 1 μM. […] After the contraction reaction was stabilized, physiological saline or the compound of the present invention was added thereto to a final concentration of 1 nM, 10 nM, 100 nM, 1 μM, and […] in a cumulative manner from a low concentration.
The tension (mg) in the extracted bladder was used as an evaluation item. The tension was read using analysis software WAVE THERMO 1000. A percent change in tension after adding the compound of the present invention when the tension after adding the contraction inducer was taken as 0% was defined as a percent change in tension (%) and used as an evaluation index. The percent change in tension (%) is calculated according to the following formula. percent change in tension (%)={tension (mg) after adding compound of the present invention and the like−tension (mg) before adding contraction inducer}/{tension (mg) after adding contraction inducer−tension (mg) before adding contraction inducer}×100−100
The value at which the percent change in tension (%) was −20% was calculated as IC20 and used as an index of the relaxing action on the extracted bladder.

The target of the next data set is T1, hERG IKr current (Homo sapiens, UniProt Q12809).
T1 construct: expressed in transfected cells; host or cells: HEK293 cells
T1 sequence (Q12809 whole entry): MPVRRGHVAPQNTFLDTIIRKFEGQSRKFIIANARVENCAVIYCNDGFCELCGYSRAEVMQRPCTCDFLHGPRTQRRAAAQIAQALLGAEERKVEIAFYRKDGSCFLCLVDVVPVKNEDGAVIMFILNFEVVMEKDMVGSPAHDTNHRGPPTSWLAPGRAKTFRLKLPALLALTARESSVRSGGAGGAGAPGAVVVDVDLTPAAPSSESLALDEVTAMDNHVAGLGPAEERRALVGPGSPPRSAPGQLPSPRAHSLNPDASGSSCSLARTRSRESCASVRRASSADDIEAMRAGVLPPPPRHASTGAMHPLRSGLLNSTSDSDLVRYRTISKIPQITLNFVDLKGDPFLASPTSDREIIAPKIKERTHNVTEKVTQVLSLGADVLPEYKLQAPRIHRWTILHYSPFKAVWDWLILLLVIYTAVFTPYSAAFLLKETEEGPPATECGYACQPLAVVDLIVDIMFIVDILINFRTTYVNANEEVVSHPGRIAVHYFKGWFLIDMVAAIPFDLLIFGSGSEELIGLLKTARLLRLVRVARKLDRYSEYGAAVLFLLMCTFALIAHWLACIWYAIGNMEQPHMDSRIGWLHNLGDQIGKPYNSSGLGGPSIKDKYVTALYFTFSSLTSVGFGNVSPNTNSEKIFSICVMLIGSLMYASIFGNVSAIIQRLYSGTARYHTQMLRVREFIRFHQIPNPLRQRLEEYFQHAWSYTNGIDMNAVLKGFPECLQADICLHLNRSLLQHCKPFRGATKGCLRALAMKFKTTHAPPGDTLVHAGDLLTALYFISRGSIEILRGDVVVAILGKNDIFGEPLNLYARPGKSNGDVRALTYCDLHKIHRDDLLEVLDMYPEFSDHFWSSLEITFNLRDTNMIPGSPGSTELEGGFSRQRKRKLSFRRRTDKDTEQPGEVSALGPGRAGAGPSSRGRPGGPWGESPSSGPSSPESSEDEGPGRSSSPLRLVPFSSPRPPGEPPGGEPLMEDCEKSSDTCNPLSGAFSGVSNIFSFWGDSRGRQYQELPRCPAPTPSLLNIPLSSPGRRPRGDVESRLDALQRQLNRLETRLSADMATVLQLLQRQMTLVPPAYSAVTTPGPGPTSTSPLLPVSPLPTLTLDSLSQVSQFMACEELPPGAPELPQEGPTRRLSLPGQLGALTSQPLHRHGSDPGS
Briefly: Action on hERG IKr current (patch-clamp, HEK293 cells overexpressing hERG). The settings on record: maximum tail current, 10 minutes after application, read-out: 50% hERG channel inhibitory activity. Format: cell-based. As to the method: By using HEK293 cells overexpressing a human ether-a-go-go-related gene (hERG), the maximum tail current of the hERG IKr current induced by redepolarization pulse subsequent to depolarization pulse was measured by a patch-clamp method, and the percent change (suppression ratio) after 10 minutes from application of a test substance with respect to the maximum tail current before the application of the test substance was calculated (see, Biophysical Journal, vol. 74, pp. 230-241 (1998)).

For another data set, the target named is T2, Human KCNQ2/3 channel (Homo sapiens, UniProt O43525+O43526).
T2 construct: expressed in transfected cells; host or cells: CHO-DHFR- cells
Briefly: Opening action with respect to KCNQ2/3 channel by depolarization stimulation (thallium influx, FLIPR). In kind it is cell-based. Conditions: concentration giving 50% of the maximum reaction of retigabine (10 μM); human KCNQ2/3 expressing CHO-DHFR- cells; read-out: KCNQ2/3 ECrtg50. As to the method:
Human KCNQ2/3 expression cells (CHO-DHFR− cells) were seeded in each well of a 384-well plate (collagen-coated, black, clear bottom) at 0.5×10^4 cells/50 μL per well and cultured using a MEM ALPHA medium (containing 10 vol % inactivated (56° C., 30 min) fetal bovine serum, 100 IU/mL penicillin, 100 μg/mL streptomycin, and 2 mM L-glutamine) at 37° C. in 5% CO2 for 18 to 24 hours. After the medium in the plate was removed, incubation (room temperature, 60 minutes, shading) was performed in a loading buffer (prepared by the method described in the manual of FluxOR Thallium Detection Kit (Invitrogen, F10016, F10017)). A KCNQ2/3 channel opening action (thallium influx into cells) by depolarization stimulation (5 mM potassium and 0.5 mM thallium) was measured by FLIPR TETRA (Molecular Devices). The compound of the present invention was treated 5 minutes before the depolarization stimulation, and the reaction induced by the depolarization stimulation was measured over time for 180 seconds. The channel opening action of the compound of the present invention was evaluated based on the change amount of the fluorescence intensity from the time before the depolarization stimulation to the time after the elapse of 180 seconds, and the concentration (ECrtg50) satisfying 50% of the fluorescence intensity change of a maximum reaction (in the treatment at 10 μM) of retigabine under the conditions of this experiment was calculated.

Data set [2] in a line: Solubility test (DMSO precipitation method, Japanese Pharmacopoeia dissolution test second solution). Format: physicochemical. Conditions: aqueous buffer, kinetic from dmso stock, JP dissolution test second solution pH 6.8, room temperature, quantification range 5 to 100 μM. As for the experimental part: A calibration curve solution was prepared at 0.1, 0.4, and 2 μM by diluting a test substance (a 10 mM DMSO solution) with acetonitrile and adding acetonitrile containing an internal standard substance (candesartan).
A sample solution was prepared as follows. 5 μL of the compound of the present invention (a 10 mM DMSO solution) was added to 495 μL of the Japanese Pharmacopoeia dissolution test second solution (pH: 6.8), followed by stirring at room temperature for 5 hours. Then, the solution was transferred to a solubility filter plate and subjected to suction filtration. The filtrate (20 μL) was diluted with acetonitrile, followed by adding acetonitrile containing an internal standard substance (candesartan).
Each of the calibration curve and sample solutions (5 μL) was injected into LC-MS/MS (Discovery Max, manufactured by Thermo Scientific, Inc.) and subjected to quantification (quantification range: 5 to 100 μM). The solubility in the case where the value equal to or less than the quantification range was obtained was defined as <5 μM, and the solubility in the case where the value equal to or more than the quantification range was obtained was defined as […].

A short description of data set [3]: Stability in human liver microsomes. The settings on record: human liver microsomes 0.5 mg/mL, NADPH, 5 μM, 37° C., 15 minutes. In kind it is in vitro ADME. As for the experimental part:
A test compound (a 10 mM DMSO solution, 5 μL) was diluted with a 50% aqueous acetonitrile solution (195 μL), whereby a 0.25 mM solution was prepared.
To a reaction vessel preheated to 37° C., 0.5 mg/mL of human liver microsomes (XenoTech, LLC) and 245 JLL of a 0.1 M phosphate buffer solution (pH 7.4) containing NADPH co-factor (BD Biosciences) were added, followed by preincubation for 5 minutes, and thereafter, the above-prepared test compound solution (5 μL) was added thereto to start a reaction (final concentration: 5 μM). Immediately after the start, a 20 μL portion was collected and added to 180 μL of acetonitrile containing an internal standard substance (warfarin) to stop the reaction. A 20 μL portion of this solution was stirred with 180 μL of a 50% aqueous acetonitrile solution on a plate equipped with a deproteinization filter, followed by suction filtration, and the filtrate was used as a standard sample.
After the above-prepared reaction solution was incubated at 37° C. for 15 minutes, a 20 μL portion of the solution was added to 180 μL of cooled acetonitrile (containing warfarin serving as an internal standard substance) to stop the reaction. A 20 μL portion of this solution was stirred with 180 μL of a 50% aqueous acetonitrile solution on a plate equipped with a deproteinization filter, followed by suction filtration, and the filtrate was used as a reaction sample.
A residual ratio (%) was calculated as follows. 1 μL of the sample solution was injected into LC-MS/MS (Discovery Max, manufactured by Thermo Scientific, Inc.), and a value obtained by dividing the peak area ratio of the reaction sample (peak area of test compound/peak area of internal standard substance) by the peak area ratio of the standard sample was multiplied by 100.
(Microsomes from liver hold many membrane-bound enzymes, among them those of drug oxidation.)

What is called IC20 is the point of the concentration-response curve where the effect stands at 20%. Consider `C[C@@H](NC(=O)Nc1c(Cl)cc2c(c1Cl)CCC2(O)C(F)(F)F)c1ccc(F)cc1` (stereo partly drawn) [Example 12(5), 1-[4,6-dichloro-1-hydroxy-1-(trifluoromethyl)-2,3-dihydro-H-inden-5-yl]-3-[(1R)-1-(4-fluorophenyl)ethyl]urea], for which the IC20 in data set [1] is 0.03 µM. Moreover, the IC50 at hERG IKr current is greater than 10 µM.
Usually solubility stands for how much of the substance goes into solution per volume. Read a high solubility as much dissolved substance. Consider `CC1(O)c2cc(Cl)c(NC(=O)NCc3ccc(F)cc3)c(Cl)c2CC1(F)F` (stereo not shown) [Example 42, 1-(4,6-dichloro-2,2-difluoro-1-hydroxy-1-methyl-2,3-dihydro-1H-inden-5-yl)-3-(4-fluorobenzyl)urea], for which the IC20 in data set [1] turned out to be 0.1 µM. Moreover, the EC50 at Human KCNQ2/3 channel amounted to 0.2 µM. Moreover, the IC50 on hERG IKr current is greater than 10 µM. Besides, the concentration in solution in data set [2] (solubility at 5 h) came to 87 µM (≈ 36.5 µg/mL). The Residual ratio in data set [3] came to 90%.
For `O=C(NCc1ccc(C(F)(F)F)cn1)Nc1c(Cl)cc2c(c1Cl)CCC2(O)C(F)(F)F` (stereo not shown) [Example 12(4), 1-[4,6-dichloro-1-hydroxy-1-(trifluoromethyl)-2,3-dihydro-1H-inden-5-yl]-3-{[5-(trifluoromethyl)-2 pyridinyl]methyl}urea], the IC20 in data set [1] amounted to 0.01 µM. On Human KCNQ2/3 channel, the EC50 amounted to 0.002 µM. For the same molecule, the solubility at 5 h in data set [2] amounted to 87 µM (≈ 42.5 µg/mL). The Residual ratio in data set [3] stood at 77%.
Turning to `CC1(O)CCc2c1cc(Cl)c(NC(=O)NCc1ccc(C(F)(F)F)cn1)c2Cl` (single isomer, unassigned) [Example 4(4), 1-(4,6-dichloro-1-hydroxy-1-methyl-2,3-dihydro-1H-inden-5-yl)-3-{[5-(trifluoromethyl)-2-pyridinyl]methyl}urea], on Human KCNQ2/3 channel, the EC50 is 0.3 µM. For the same molecule, the IC50 on hERG IKr current was greater than 10 µM. Moreover, the Residual ratio in data set [3] was determined as 98%.
Take `O=C(NCc1ccc(F)cc1)Nc1c(Cl)cc2c(c1Cl)CCC2(O)C(F)(F)F` (stereo not shown) [Example 12, 1-[4,6-dichloro-1-hydroxy-1-(trifluoromethyl)-2,3-dihydro-1H-inden-5-yl]-3-(4-fluorobenzyl)urea]: the IC20 in data set [1] was determined as 0.01 µM. Also, the EC50 at Human KCNQ2/3 channel was 0.005 µM. On hERG IKr current, the IC50 is greater than 10 µM. In data set [2], this molecule gave a solubility at 5 h of 82 µM (≈ 35.9 µg/mL). Moreover, in data set [3], the Residual ratio turned out to be 94%.
